Measured values taken from patent US20090326196A1 (priority 2006, published 2009).
Square brackets hold non-standard residues; d marks the D form. Peptide text beside a SMILES is read from it. Leu(5,5,5,5',5',5'-F6) = N[C@@H](CC(C(F)(F)F)C(F)(F)F)C(=O)O

Key:
[1] = target: T1, trypsin (from bovine pancreas, EC 3.4.21.4) (Bos taurus, UniProt P00760); experiment: in vitro; assay type: in vitro ADME
T1 construct: trypsin (from bovine pancreas, EC 3.4.21.4); from tissue; host or cells: bovine pancreas
T1 sequence (P00760 24-246): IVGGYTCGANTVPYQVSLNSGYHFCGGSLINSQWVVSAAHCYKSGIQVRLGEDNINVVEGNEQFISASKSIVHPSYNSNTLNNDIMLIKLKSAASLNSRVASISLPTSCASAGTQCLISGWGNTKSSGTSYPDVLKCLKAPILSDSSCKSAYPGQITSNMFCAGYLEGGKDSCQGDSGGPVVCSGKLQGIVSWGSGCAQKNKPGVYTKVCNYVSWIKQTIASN
Method: The proteolytic stability of peptides towards trypsin (from bovine pancreas, EC 3.4.21.4) was determined by an analytical RP-HPLC assay. […] The enzyme concentration (in 1 mM HCl) was determined by absorbance at 280 nm. […] The amount of enzyme was optimized so that kinetics of proteolytic reactions could be assayed by RP-HPLC (detection at 230 nm). The peptides were incubated with trypsin at 37° C. over a period of 3 h. Aliquots (10 μL) were taken at different reaction times, diluted with 0.2% TFA (440 μL) and stored at −80° C. […] The remaining full-length peptide concentration was normalized with respect to the initial concentration.
where A is the normalized concentration of peptides; k is the pseudo first order rate constant; t is the reaction time in mins; and [A]0 is the initial concentration of peptides. Each fragment cleaved from the full-length peptides was identified by ESI-MS so that cleavage patterns could be established and compared.

[2] = target: DPP IV (from porcine kidney, EC 3.4.14.5) (Sus scrofa, UniProt P22411); conditions: for hydrolysis products by RP-HPLC (FIG. 38): F8: 48 h at 20 U/L and 1 h at 200 U/L, F89: 20 and 60 mins; for fragments detected after incubation with DPP IV: after 24 h incubation
Sequence of DPP IV (from porcine kidney, EC 3.4.14.5) (Sus scrofa, UniProt P22411) (P22411 whole entry, the tested form may be a part): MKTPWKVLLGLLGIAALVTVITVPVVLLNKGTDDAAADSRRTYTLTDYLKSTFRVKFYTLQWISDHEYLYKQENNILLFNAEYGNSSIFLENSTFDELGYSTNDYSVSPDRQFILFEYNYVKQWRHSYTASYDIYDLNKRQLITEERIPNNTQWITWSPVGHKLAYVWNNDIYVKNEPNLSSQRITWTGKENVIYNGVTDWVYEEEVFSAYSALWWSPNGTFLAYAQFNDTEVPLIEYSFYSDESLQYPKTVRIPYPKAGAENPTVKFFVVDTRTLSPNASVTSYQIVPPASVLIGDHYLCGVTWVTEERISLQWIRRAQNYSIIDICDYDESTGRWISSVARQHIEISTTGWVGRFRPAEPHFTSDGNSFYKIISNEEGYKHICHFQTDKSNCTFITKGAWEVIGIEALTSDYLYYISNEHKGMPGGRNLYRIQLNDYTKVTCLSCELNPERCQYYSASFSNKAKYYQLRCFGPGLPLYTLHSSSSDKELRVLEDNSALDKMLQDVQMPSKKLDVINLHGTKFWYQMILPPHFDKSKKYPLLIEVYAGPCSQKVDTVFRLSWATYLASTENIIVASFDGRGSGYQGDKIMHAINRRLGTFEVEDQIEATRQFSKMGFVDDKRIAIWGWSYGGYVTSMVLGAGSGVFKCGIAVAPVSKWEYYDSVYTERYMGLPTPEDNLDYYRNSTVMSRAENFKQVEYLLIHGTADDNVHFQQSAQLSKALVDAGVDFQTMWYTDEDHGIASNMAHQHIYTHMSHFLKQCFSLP
Method: Proteolytic Stability. […] DPP IV has a relative specific requirement for substrate residues at P2, P1, P1′ and P2′ positions regarding the scissile Ala-Glu amide bond. Especially, at P1 position, Pro and Ala are highly favored. […] The proteolytic stability of peptides towards DPP IV (from porcine kidney, EC 3.4.14.5) was determined by analytical RP-HPLC assay (detection at 230 nm). A chromogenic substrate, Gly-Pro-p-nitroanilide, was employed to calibrate specific activity by measuring absorbance at 410 nm using Δε=8800 M^−1·cm^−1 in 100 mM Tris-HCl, pH 8.0. […] Reactions were quenched with 600 μL of 0.2% TFA at time intervals and stored on dry ice until the analysis. An analytical C18 column [J. T. Baker C18, 5 μm, 4 mm×250 mm] was used for separation and quantitation of intact and digested peptides with a binary solvent system can/H2O/0.1% TFA. First order rate constants were obtained as the fitted value±one standard deviation by fitting with the equation: […]
where A is the concentration of peptides; k the first order rate constant; t the reaction time in min; and [A]0 the initial concentration of peptides. The fragments derived from the full-length peptides were manually collected and identified by ESI-MS.

[3] = system: human red blood cells (hRBC); assay type: cell-based
Method: The selectivity with which the peptides are able to lyse bacterial cells compared to mammalian cells was interrogated by a hemolysis assay against human red blood cells (hRBC). […] Our results are consistent with this trend.
Fresh human red blood cells (hRBCs) were centrifuged at 3,500 rpm and washed with PBS buffer until the supernatant was clear. The hRBCs were then resuspended and diluted to a final concentration of 1% (v/v) in PBS and stored at 4° C. […] An aliquot (50 μL) of supernatant was transferred to a new 96-well plate containing 50 μL H2O in each well. The absorbance at 415 nm was measured using a plate reader. Wells containing melittin at 100-400 μg/mL served as positive controls, and wells containing only buffer and hRBCs served as negative controls. The percentage hemolysis was calculated using the equation:
where complete hemolysis is defined as the average absorbance of all wells containing 100-400 μg/[…] melittin.

[4] = system: trypsin (from bovine pancreas, EC 3.4.21.4); experiment: 1 μg trypsin in 200 μL of PBS buffer (pH 7.4, 10 mM PO4^3−, 150 mM NaCl); conditions: 37° C., up to 3 h
[5] = system: DPP IV (from porcine kidney, EC 3.4.14.5); experiment: DPP IV 20 unit/L in 50 mM Tris-HCl, 1 mM EDTA, pH 7.6; conditions: 37° C., up to 48 h
[6] = system: trypsin (from bovine pancreas, EC 3.4.21.4); experiment: 0.5 μg trypsin in 200 μL of PBS buffer (pH 7.4, 10 mM PO4^3−, 150 mM NaCl); conditions: 37° C., up to 3 h

CC(C)C[C@H](NC(=O)CNC(=O)[C@H](C)NC(=O)[C@@H](N)CCCNC(=N)N)C(=O)N[C@@H](CCC(N)=O)C(=O)N[C@@H](Cc1ccccc1)C(=O)N1CCC[C@H]1C(=O)N[C@H](C(=O)NCC(=O)N[C@@H](CCCNC(=N)N)C(=O)N[C@H](C(=O)N[C@@H](Cc1c[nH]cn1)C(=O)N[C@@H](CCCNC(=N)N)C(=O)N[C@@H](CC(C(F)(F)F)C(F)(F)F)C(=O)N[C@@H](CC(C(F)(F)F)C(F)(F)F)C(=O)N[C@@H](CCCNC(=N)N)C(=O)N[C@@H](CCCCN)C(=O)O)C(C)C)C(C)C [BII5F2] (H-RAGLQFPVGRVHR[Leu(5,5,5,5',5',5'-F6)][Leu(5,5,5,5',5',5'-F6)]RK-OH)
fold more resistant to hydrolysis by trypsin [1]: ~3 fold

CC[C@H](C)[C@H](NC(=O)[C@H](Cc1ccccc1)NC(=O)[C@H](CCC(=O)O)NC(=O)[C@H](CCCCN)NC(=O)[C@H](C)NC(=O)[C@H](C)NC(=O)[C@H](CCC(N)=O)NC(=O)CNC(=O)[C@H](CCC(=O)O)NC(=O)[C@H](CC(C)C)NC(=O)[C@H](Cc1ccc(O)cc1)NC(=O)[C@H](CO)NC(=O)[C@H](CO)NC(=O)[C@@H](NC(=O)[C@H](CC(=O)O)NC(=O)[C@H](CO)NC(=O)[C@@H](NC(=O)[C@H](Cc1ccccc1)NC(=O)[C@@H](NC(=O)CNC(=O)[C@H](CCC(=O)O)NC(=O)[C@H](CC(C(F)(F)F)C(F)(F)F)NC(=O)[C@@H](N)Cc1cnc[nH]1)[C@@H](C)O)[C@@H](C)O)C(C)C)C(=O)N[C@@H](C)C(=O)N[C@@H](Cc1c[nH]c2ccccc12)C(=O)N[C@@H](CC(C)C)C(=O)N[C@H](C(=O)N[C@@H](CCCCN)C(=O)NCC(=O)N[C@@H](CCCNC(=N)N)C(N)=O)C(C)C [Peptide F8]
hydrolysis products by RP-HPLC (FIG. 38) [2]: No detectable hydrolysis products
fragments detected after incubation with DPP IV [2]: no fragments were detected

CC[C@H](C)[C@H](NC(=O)[C@H](Cc1ccccc1)NC(=O)[C@H](CCC(=O)O)NC(=O)[C@H](CCCCN)NC(=O)[C@H](C)NC(=O)[C@H](C)NC(=O)[C@H](CCC(N)=O)NC(=O)CNC(=O)[C@H](CCC(=O)O)NC(=O)[C@H](CC(C)C)NC(=O)[C@H](Cc1ccc(O)cc1)NC(=O)[C@H](CO)NC(=O)[C@H](CO)NC(=O)[C@@H](NC(=O)[C@H](CC(=O)O)NC(=O)[C@H](CO)NC(=O)[C@@H](NC(=O)[C@H](Cc1ccccc1)NC(=O)[C@@H](NC(=O)CNC(=O)[C@H](CC(C(F)(F)F)C(F)(F)F)NC(=O)[C@H](C)NC(=O)[C@@H](N)Cc1c[nH]cn1)[C@@H](C)O)[C@@H](C)O)C(C)C)C(=O)N[C@@H](C)C(=O)N[C@@H](Cc1c[nH]c2ccccc12)C(=O)N[C@@H](CC(C)C)C(=O)N[C@H](C(=O)N[C@@H](CCCCN)C(=O)NCC(=O)N[C@@H](CCCNC(=N)N)C(N)=O)C(C)C [Peptide F9]
resistance to DPP IV, in words ([2]; hexafluoroleucine at P1′ and P2′ positions): moderate enhanced resistance

CC[C@H](C)[C@H](NC(=O)[C@H](Cc1ccccc1)NC(=O)[C@H](CCC(=O)O)NC(=O)[C@H](CCCCN)NC(=O)[C@H](C)NC(=O)[C@H](C)NC(=O)[C@H](CCC(N)=O)NC(=O)CNC(=O)[C@H](CCC(=O)O)NC(=O)[C@H](CC(C)C)NC(=O)[C@H](Cc1ccc(O)cc1)NC(=O)[C@H](CO)NC(=O)[C@H](CO)NC(=O)[C@@H](NC(=O)[C@H](CC(=O)O)NC(=O)[C@H](CO)NC(=O)[C@@H](NC(=O)[C@H](Cc1ccccc1)NC(=O)[C@@H](NC(=O)CNC(=O)[C@H](CC(C(F)(F)F)C(F)(F)F)NC(=O)[C@H](CC(C(F)(F)F)C(F)(F)F)NC(=O)[C@@H](N)Cc1cnc[nH]1)[C@@H](C)O)[C@@H](C)O)C(C)C)C(=O)N[C@@H](C)C(=O)N[C@@H](Cc1c[nH]c2ccccc12)C(=O)N[C@@H](CC(C)C)C(=O)N[C@H](C(=O)N[C@@H](CCCCN)C(=O)NCC(=O)N[C@@H](CCCNC(=N)N)C(N)=O)C(C)C [Peptide F89]
hydrolysis products by RP-HPLC (FIG. 38) [2]: No detectable hydrolysis products
fragments detected after incubation with DPP IV [2]: no fragments were detected

CC[C@H](C)[C@H](NC(=O)CN)C(=O)NCC(=O)N[C@@H](CCCCN)C(=O)N[C@@H](Cc1ccccc1)C(=O)N[C@@H](CC(C(F)(F)F)C(F)(F)F)C(=O)N[C@@H](Cc1cnc[nH]1)C(=O)N[C@@H](C)C(=O)N[C@@H](C)C(=O)N[C@@H](CCCCN)C(=O)N[C@@H](CCCCN)C(=O)N[C@@H](Cc1ccccc1)C(=O)N[C@@H](C)C(=O)N[C@@H](CCCCN)C(=O)N[C@@H](C)C(=O)N[C@@H](Cc1ccccc1)C(=O)N[C@H](C(=O)N[C@@H](C)C(=O)N[C@@H](CCC(=O)O)C(=O)N[C@@H](CC(C(F)(F)F)C(F)(F)F)C(=O)N[C@@H](CCSC)C(=O)N[C@@H](CC(N)=O)C(=O)N[C@@H](CO)C(N)=O)C(C)C [Peptide M2F2] (H-GIGKF[Leu(5,5,5,5',5',5'-F6)]HAAKKFAKAFVAE[Leu(5,5,5,5',5',5'-F6)]MNS-NH2)
hemolytic activity relative to parent peptide, in words [3]: slightly more hemolytic
more stable to proteolysis by a factor, relative to M2 [1]: ~1.2

GIGKFLHAAKKFAKAFVAEIMNS
fragment found [4]: M2 (1-14), first_seen

GIGKFXHAAKKFAKAFVAEXMNS
fragment found [4]: M2F2 (1-14), first_seen

HAXGTFTSDVSSYLEGQAAKEFIAWLVKGR
fragment found [5]: corresponding peptide fragment GLP-1 (9-36) amide, major

HXEGTFTSDVSSYLEGQAAKEFIAWLVKGR
not cleaved [5]: no fragments were detected after 24 h incubation

HXXGTFTSDVSSYLEGQAAKEFIAWLVKGR
not cleaved [5]: no fragments were detected after 24 h incubation

TRSSRAGLQFPVGRVHRXXRK
cleaved bond [6]: initial P1 site of cleavage BII1F2 (R14), first_seen
fragment found [6]: BII1F2 (6-21), first_seen

buforin II[1-21] [BII1, reference compound]
initial P1 site of cleavage [1]: R17

magainin 2 [Peptide M2, reference compound]
time to complete hydrolysis [1]: 33 min
